Values belong to the molecule of their own block, whether it stands above or below them. Ends that are not written are not given here.
Assays:
[1] = test system: monoclonal antibody MV-004; experiment: In vitro inhibition assay (ELISA), MV-004 binding to original epitope; parameters: species or system BalbC mice; conditions: Table 2B; OD at 10 ug peptide compared to original peptide
Description: (§1) Different amounts of peptides (concentrations ranging from 10 μg to 0.08 μg; serial dilutions; for MV-002: concentrations ranging from 5 μg to 0.03 μg; serial dilutions), derived from Phage Display were incubated with the monoclonal antibody that was used for the screening procedure. Peptides diminishing subsequent binding of the antibody to the original epitope coated on ELISA plates were considered as inhibiting in this assay.
(§2) Legend to Table 2B: the inhibition capacity is coded by the following code: Weak inhibition means more peptide is required to lower AB binding than with the original epitope; strong inhibition means similar peptide amounts are required for mimotope and original epitope for lowering AB binding. Mimotopes are compared to the original peptide as standard. OD at 10 ug peptide used in the assay is used to calculate the competition capacity compared to original peptide.

[2] = test system: monoclonal antibody MV-004; experiment: In vitro binding assay (ELISA), BSA-coupled peptides, parental antibody MV-004; parameters: species or system BalbC mice; conditions: Table 1B; peptide-BSA on plate, compared to original epitope
Description: (§3) Peptides derived from Phage Display as well as variants thereof were coupled to BSA and bound to ELISA plates (1 μM; as indicated in the respective figures) and subsequently incubated with the monoclonal antibody that was used for the screening procedure to analyse binding capacity of identified peptides.
Legend to Table 1B: the binding capacity is coded by the following binding code: 1:X describes the dilution factor of the parental AB.

[3] = test system: injected peptide (mimotope-BSA conjugate); experiment: Mimotope vaccination, serum titer ELISA against injected peptide; format: in vivo, C57/B16 mice; conditions: 30 μg peptide-KLH s.c. with alum, anti-mouse IgG
Description: (§4) Inhibiting as well as non-inhibiting peptides were coupled to KLH and injected into mice (wildtype C57/B16 mice; subcutaneous injection into the flank) together with an appropriate adjuvant (aluminium hydroxide). Animals were vaccinated 3-6 times in biweekly intervals and sera were taken biweekly as well. Titers to injected peptides, as well as to an irrelevant peptide were determined with every serum. Furthermore, titers against the recombinant human Aβ protein, and against original peptides were determined respectively. In general sera were analysed by reaction against peptides coupled to Bovine Serum Albumin (BSA) and recombinant full length proteins which were immobilised on ELISA plates. Titers were determined using anti mouse IgG specific antibodies. For detailed results see FIGS. 15, 16 and 17 respectively and FIGS. 23, 24 and 25 respectively.
(§5) Female C57/b16 mice, 5-6 mice per group, were subcutaneously immunized with 30 μg peptide coupled to KLH. Control groups were administered original epitope-KLH conjugates respectively. As adjuvant alum was used (always 1 mg per mouse). […] The in vitro ELISA assay to determine the antibody titer was performed with sera of single mice after each vaccination in a two week interval (see FIGS. 15 and 16 respectively). The wells of the ELISA plate were coated with mimotope-BSA conjugate and an irrelevant peptide-BSA conjugate (negative control). The positive control was performed by reaction of the parental antibody with the respective mimotope-BSA conjugate. The detection was performed with anti-mouse IgG. Additionally, recombinant proteins were immobilised on ELISA plates and sera reacted accordingly. FIGS. 15 to 17 show representative examples for assays used to characterise mimotopes in vivo.
as §5, with “FIGS. 25” for “FIGS. 15”, “and 26” for “and 16”, “respectively). Titers were calculated as OD max/2 in all figures shown.” for “respectively).”, “FIGS. 23, 24 and 25” for “FIGS. 15 to 17”

p4377 = experiment: Mimotope vaccination, serum ELISA against p4377; format: in vivo, C57/B16 mice; conditions: peptide-KLH vaccines with alum; FIG. 24
Description: as §4
as §5, with “FIGS. 25” for “FIGS. 15”, “and 26” for “and 16”, “respectively). Titers were calculated as OD max/2 in all figures shown.” for “respectively).”, “FIGS. 23, 24 and 25” for “FIGS. 15 to 17”

[4] = test system: Aβ/truncated/modified forms; experiment: In vivo characterisation of mimotopes: detection of Aβ/truncated/modified forms; parameters: species or system C57/B16 mice; key: +: All peptides listed in table 4 mount specific immune reactions against full length and/or truncated and modified forms of Aβ or fragments thereof; conditions: Table 4, MV-002 derived mimotopes
Description: as §4, §5
as §5, with “FIGS. 25” for “FIGS. 15”, “and 26” for “and 16”, “respectively). Titers were calculated as OD max/2 in all figures shown.” for “respectively).”, “FIGS. 23, 24 and 25” for “FIGS. 15 to 17”

irrelevant peptide p1454 = experiment: Mimotope vaccination, serum titer ELISA against irrelevant peptide; format: in vivo, C57/B16 mice; conditions: 30 μg peptide-KLH s.c. with alum
Description: as §4, §5
as §5, with “FIGS. 25” for “FIGS. 15”, “and 26” for “and 16”, “respectively). Titers were calculated as OD max/2 in all figures shown.” for “respectively).”, “FIGS. 23, 24 and 25” for “FIGS. 15 to 17”

[5] = test system: monoclonal antibody MV-002; experiment: In vitro inhibition assay (ELISA), MV-002 binding to original epitope; parameters: species or system C57/B16 mice; conditions: for inhibition of binding of monoclonal antibody in in vitro competition experiments: MV-002 mimotopes; for Inhibition Capacity: Table 2 (MV-002), OD at 5 ug peptide compared to original peptide
Description: as §1
as §2, with “2:” for “2B:”, “5” for “10”

[6] = test system: monoclonal antibody MV-002; experiment: In vitro binding assay (ELISA), BSA-coupled peptides, parental antibody MV-002; parameters: species or system C57/B16 mice; conditions: Table 1 (MV-002); peptide-BSA on plate, compared to original epitope
Description: as §3
Legend to Table 1: the binding capacity is coded by the following binding code: 1:X describes the dilution factor of the parental AB. Ac- . . . indicates acetylated AA.

[7] = biological target: monoclonal antibody MV-001; experiment: ELISA on peptide-BSA; code 1 = weak binding, OD halfmax 1:<4000
[8] = biological target: monoclonal antibody MV-002; experiment: ELISA on peptide-BSA; code 2 = medium binding, OD halfmax 1:40000-320000
[9] = biological target: monoclonal antibody MV-002; experiment: ELISA on peptide-BSA; code 1 = weak binding, OD halfmax 1:<40000
[10] = biological target: monoclonal antibody MV-001; experiment: inhibition ELISA, competitor coated original epitope p4371; code 1 = weaker than original epitope

inhibition of binding of monoclonal antibody in in vitro competition experiments [5]: active in in vitro inhibition assays | Binding Capacity [6]: 3 (strong binding :>320000)
Molecule: GEIYFERC [p4681]
immune response against injected peptide [3]: elicited immune responses | immune response against original epitope p4377 (p4377): mounted detectable immune responses | Detection of Aβ/truncated/modified forms [4]: + | immune response against unrelated sequence (p1454) (irrelevant peptide p1454): failed to induce a relevant unspecific immune response | Inhibition Capacity [5]: 2 (strong inhibition (as original epitope; OD of peptide below 2, 3 times of original peptide))

Binding Capacity [2]: 2 (medium binding :24-96000)
Molecule: ELWHRYPC [p4420]
Inhibition Capacity [1]: 1 (Weaker than original epitope (OD of 10 ug peptide below 5 times of original peptide))

Binding Capacity [2]: 1 (weak binding :<24000)
Molecule: EVWHRHC [p4789]
Inhibition Capacity [1]: 1 (Weaker than original epitope (OD of 10 ug peptide below 5 times of original peptide))

Binding Capacity [2]: 2 (medium binding :24-96000)
Molecule: ELWHRAFC [p4665]
Inhibition Capacity [1]: 2 (strong inhibition (as original epitope; OD of 10 ug peptide below 2 times of original peptide))

OD halfmax 1:X (dilution factor of the parental antibody at half-maximal OD) (dilutionfactor(1:x)) [7]: < 4000
Molecule: TSTEMWHC [p4754]

OD halfmax dilution factor of the parental antibody (1:X) (dilutionfactor(1:x)) [9]: < 40000
Molecule: SGEIYFERC [p4805]

OD halfmax 1:X (dilution factor of the parental antibody at half-maximal OD) (dilutionfactor(1:x)) [7]: < 4000
Molecule: HEPLFSHC [p4719]

OD halfmax dilution factor of the parental antibody (1:X) (dilutionfactor(1:x)) [9]: < 40000
Molecule: QLPLFVLC [p4700]

OD halfmax dilution factor of the parental antibody (1:X) (dilutionfactor(1:x)) [8]: 40000 to 320000
Molecule: GQIIFQSC [p4668]

OD halfmax dilution factor of the parental antibody (1:X) (dilutionfactor(1:x)) [8]: 40000 to 320000
Molecule: GELFFEKC [p4795]

OD halfmax dilution factor of the parental antibody (1:X) (dilutionfactor(1:x)) [8]: 40000 to 320000
Molecule: HQKMIFC [p4794]

OD halfmax dilution factor of the parental antibody (1:X) (dilutionfactor(1:x)) [9]: < 40000
Molecule: CGEIYFER [p4807]

OD halfmax 1:X (dilution factor of the parental antibody at half-maximal OD) (dilutionfactor(1:x)) [7]: < 4000
Molecule: QPNLFYHC [p4713]

OD halfmax dilution factor of the parental antibody (1:X) (dilutionfactor(1:x)) [9]: < 40000
Molecule: AGEIYFERC [p4806]

Second part, the molecule before the results:

Molecule: EVWHRGC [p4788]
Inhibition Capacity [1]: 1 (Weaker than original epitope (OD of 10 ug peptide below 5 times of original peptide)) | Binding Capacity [2]: 1 (weak binding :<24000)

Molecule: ERWHEKHC [p4418]
Inhibition Capacity [1]: 2 (strong inhibition (as original epitope; OD of 10 ug peptide below 2 times of original peptide)) | Binding Capacity [2]: 3 (strong binding :>96000)

Molecule: EVWHRHQC [p4417]
Inhibition Capacity [1]: 1 (Weaker than original epitope (OD of 10 ug peptide below 5 times of original peptide)) | Binding Capacity [2]: 2 (medium binding :24-96000)

Molecule: HQKMIFAC [p4675]
immune response against injected peptide [3]: elicited immune responses | immune response against original epitope p4377 (p4377): mounted detectable immune responses | Detection of Aβ/truncated/modified forms [4]: + | immune response against unrelated sequence (p1454) (irrelevant peptide p1454): failed to induce a relevant unspecific immune response | inhibition of binding of monoclonal antibody in in vitro competition experiments [5]: active in in vitro inhibition assays | Inhibition Capacity [5]: 2 (strong inhibition (as original epitope; OD of peptide below 2, 3 times of original peptide)) | Binding Capacity [6]: 3 (strong binding :>320000)

Molecule: ERWHEKC [p4790]
Inhibition Capacity [1]: 2 (strong inhibition (as original epitope; OD of 10 ug peptide below 2 times of original peptide)) | Binding Capacity [2]: 1 (weak binding :<24000)

Molecule: EVWHRLQC [p4419]
Inhibition Capacity [1]: 2 (strong inhibition (as original epitope; OD of 10 ug peptide below 2 times of original peptide)) | Binding Capacity [2]: 3 (strong binding :>96000)

Molecule: EVHHQKLVFC [p4377, reference compound]
immune response against injected peptide [3]: elicited immune responses | immune response against original epitope p4377 (p4377): mounted detectable immune responses | immune response against unrelated sequence (p1454) (irrelevant peptide p1454): failed to induce a relevant unspecific immune response

Molecule: ELWHRAC [p4786]
Inhibition Capacity [1]: 1 (Weaker than original epitope (OD of 10 ug peptide below 5 times of original peptide)) | Binding Capacity [2]: 1 (weak binding :<24000)

Molecule: EDWFFWHC [p4709]
OD halfmax 1:X (dilution factor of the parental antibody at half-maximal OD) (dilutionfactor(1:x)) [7]: < 4000

Molecule: GSLFFWPC [p4688]
OD halfmax dilution factor of the parental antibody (1:X) (dilutionfactor(1:x)) [8]: 40000 to 320000

Molecule: GTLIFHHC [p4695]
OD halfmax dilution factor of the parental antibody (1:X) (dilutionfactor(1:x)) [8]: 40000 to 320000

Molecule: Ac-GEIYFERC [p4804]
OD halfmax dilution factor of the parental antibody (1:X) (dilutionfactor(1:x)) [8]: 40000 to 320000

Molecule: TPLMFWHC [p4733]
OD halfmax 1:X (dilution factor of the parental antibody at half-maximal OD) (dilutionfactor(1:x)) [7]: < 4000

Molecule: GEIRFELC [p4796]
OD halfmax dilution factor of the parental antibody (1:X) (dilutionfactor(1:x)) [8]: 40000 to 320000

Molecule: QELKRYYC [p4724]
OD halfmax 1:X (dilution factor of the parental antibody at half-maximal OD) (dilutionfactor(1:x)) [7]: < 4000

Molecule: NWFPHPC [p4392]
OD halfmax 1:X (dilution factor of the parental antibody at half-maximal OD) (dilutionfactor(1:x)) [7]: < 4000 | OD at 10 ug peptide relative to OD of original peptide (inhibition ELISA) [10]: 2 to 3 fold
